Assays:
APP/PS1 TG mice = experiment: Y-maze test; assay type: in vivo; settings: 8th week after oral administration; compared to TG-Veh and WT-Veh
Description: (§1) Transgenic mice (APP/PS1 TG; Alzheimer' disease animal model; B6C3-Tg(APPswe, PSEN1dE)85Dbo/Mmjax) and wild type mice were derived from Jackson Laboratory (Bar Harbor, Maine, USA). APP/PS1 TG mice crossed with wild-type mice and maintained as double hemizygotes. All genotypes were confirmed by PCR analysis using tail DNA according to the standard PCR conditions of the Jackson Laboratory. Each mouse was housed in a plastic cage in the animal cage and the temperature of the plastic cage was maintained at 21±1° C. in alternating 12 hour light cycle, and the mice were freely fed with food and water.
The control group received the same amount of vehicle (0.5% MC in DW).
Y-maze test was performed using a maze structure made by placing the same three arms 40 cm in length (15 cm in height of the wall) at an angle of 120 degrees. […] The search time was 8 minutes per subject, and the final result was expressed as a spontaneous alteration (%) value. Spontaneous alteration (%) value was calculated by the following formula. […]
Behavioral patterns were analyzed using SMART VIDEO TRACKING Software (Panlab, USA). All data obtained in the experiments were expressed as mean±standard error mean (SEM), and the drug-applied group was compared with the non-drug group, which was a control, by using student's t-test.

Aβ1-42 [1] = molecular target: T1, Aβ1-42 (Homo sapiens, UniProt P05067); experiment: Aβ aggregation inhibition test (Thioflavin T analysis); assay type: biochemical; settings: for Aβ aggregation degree compared to the control / amyloid aggregation inhibition effect compared to the control: 2 μM compound, Aβ1-42 50 μM; for Aβ aggregation degree compared to the control: 37° C. 72 hours, control = 100%; for amyloid aggregation inhibition effect compared to the control: 72 hours; for Aggregation (%): 20 μM compound, 50 μM Aβ, 3 days, relative to control (100%)
T1 construct: human A81-42 monomers (UniProtKB-P05067, a.a. 672-713)
T1 sequence (P05067 672-713): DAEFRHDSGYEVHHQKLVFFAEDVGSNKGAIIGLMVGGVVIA
Experimental: Then, the compound was used diluted by using 6% DMSO (in DW) and used.
Triflupromazine hydrochloride (triflupromazine used in all the examples below is triflupromazine hydrochloride) was dissolved to a concentration of 5 mM in DMSO. The compound was then used diluted with 6% DMSO (in DW).
The Aβ solution was prepared by dissolving human A81-42 monomers (UniProtKB-P05067, a.a. 672-713) to 10 mM concentration in DMSO. Thereafter, the mixture was diluted to 100 uM by using DW and stored on ice.
On the other hand, Thioflavin-T (Sigma-Aldrich) was dissolved to the concentration of 5 mM in 50 mM glycine buffer (pH 8.5). Then, the resultant solution was diluted to the concentration of 50 μM by using 50 mM glycine buffer (pH 8.5) and stored in the dark while light was blocked.
(§2) 25 μL of the reaction solution in which the reaction was completed was added to each well of a 96-well fluorescence assay plate, and 75 μL of the Thioflavin-T solution prepared above was added to each well. After reacting for 5 minutes in the dark at room temperature, fluorescence values were measured at excitation 450 nm and emission 485 nm by using a multi-mode microplate reader.
The fluorescence value of the group (control) treated with Aβ alone and aggregated for 72 hours was considered as 100%, and the measured fluorescence values were expressed as a relative value thereto, and results thereof are shown in FIG. 1 and FIG. 2.
In addition, by performing the same test as described above for 20 μM of various compounds using 50 μM Aβ, the degree of Aβ aggregation was measured, and the result is expressed as a relative value for control (100%).

Aβ1-42 [2] = molecular target: T1, Aβ1-42; experiment: Aβ disaggregation test by Thioflavin T analysis; assay type: biochemical; settings: for amyloid disaggregation effect: Aβ1-42 25 μM; for degree of Aβ aggregation compared to the control: Aβ1-42 25 μM pre-aggregated 72 hours, then 72 hours
Experimental: (§3) The compound was then used diluted with 6% DMSO (in DW).
Triflupromazine hydrochloride was dissolved to the concentration of 5 mM in DMSO. The compound was then used diluted with 6% DMSO (in DW).
(§4) The Aβ solution was prepared by dissolving Aβ 1-42 monomers to the concentration of 10 mM in DMSO. Thereafter, the mixture was diluted to 100 μM by using DW and stored on ice.
(§5) On the other hand, Thioflavin-T was dissolved to the concentration of 5 mM in 50 mM glycine buffer (pH 8.5). Then, the resultant solution was diluted to the concentration of 50 μM by using 50 mM glycine buffer (pH 8.5) and stored in the dark while light was blocked.
The Aβ solution prepared in Example 2.1. was placed in 1.5 mL microcentrifuge tubes, each having 25 μM of the Aβ solution, and then reacted at 37° C. for 72 hours.
as §2
The fluorescence value of the group (control) treated with Aβ alone and aggregated for 72 hours was considered as 100%, and the measured fluorescence values were expressed as a relative value thereto, and results thereof are shown in FIG. 3 and FIG. 4.

Aβ42 = molecular target: T2, Aβ42 (Homo sapiens, UniProt P05067); experiment: Aβ disaggregation test by SDS-PAGE analysis (PICUP); assay type: biochemical; settings: 25 μM Aβ aggregated 3 days, 50 μM or 500 μM compound, further 3 days
T2 construct: human A81-42 monomers (UniProtKB-P05067, a.a. 672-713)
T2 sequence (P05067 672-713): as above
Experimental: In order to confirm Aβ disaggregation in the sample prepared in Example 2.1, SDS-PAGE analysis was performed as follows.
In detail, the stock of ammonium persulfate (APS; 200 mM)and tris (2,2′-bipyridyl)dichlororuthenium (II) hexahydrate (Ru; 10 mM) was prepared in an amber tube (Axygen, MCT-150-X) by using a photo-induced cross-linking of unmodified proteins (PICUP) buffer (0.1 M sodium phosphate (pH 7.4)). The stock was diluted 10-fold in PICUP buffer (APS: 20 mM/Ru: 1 mM). 10 μL of each sample prepared in Example 2.1 was dispensed at the bottom of a 0.5 mL tube (Axygen, PCR-05-C). 1 μL of APS (20 mM) was dispensed on the tube wall and 1 μL of Ru (1 mM) on the tube cap. At this time, in order to prevent the reaction from proceeding, the sample was not mixed with APS and Ru. After closing the tube cap and spin down using a centrifuge, the tube was removed from the centrifuge and exposed to light 3 times per second using an incandescent lamp. 3 μL of 5× reducing sample buffer (w/5% β-mercaptoethanol) was added to each tube. Samples were heated at 95-100° C. for 5 minutes and then cooled on ice.
Then, the PICUP-treated samples were loaded on 4-20% (w/v) tris/glycine gel and electrophoresed at 100V for 1 hour and 30 minutes. After electrophoresis, the gel was separated and confirmed by silver staining.

Aβ1-42 [3] = molecular target: T1, Aβ1-42; experiment: Aβ disaggregation test of rifamycin-based derivatives by Thioflavin T analysis; assay type: biochemical; settings: 50 μM compound, 50 μM Aβ1-42 aggregated 3 days, then 2 days of reaction
Experimental: as §3, §4, §5
The Aβ solution prepared in Example 3.1. was placed in 1.5 mL microcentrifuge tubes, each having 50 μM of the Aβ solution, and then reacted at 37° C. for 72 hours.
Each 1.5 mL microcentrifuge tube was treated with 50 μM rifapentine-based derivatives, followed by reaction at 37° C. for 48 hours.
as §2
The fluorescence value of the group (control) treated with Aβ alone and aggregated for 72 hours by treating only Aβ was considered as 100%, and the measured fluorescence values were expressed as a relative value thereto, and results thereof are shown in FIG. 7.

5× FAD mice = experiment: Amyloid plaque reduction by oral triflupromazine, Thioflavin S staining; assay type: in vivo; settings: oral 50 mg/kg once every two days for 3 weeks; vs vehicle control mice
Description: as §1, with “(5×FAD; Alzheimer's” for “(APP/PS1 TG; Alzheimer'”, “B6SJL-Tg (APPSwFILon, PSEN1*M146L*L286V)6799Vas/Mmjax))” for “B6C3-Tg(APPswe, PSEN1dE)85Dbo/Mmjax)”, “wild-type” for “wild type”, “obtained” for “derived”, “5× FAD” for “APP/PS1 TG”, “Four to six mice were” for “Each mouse was”
(§6) Seven-month old 5× FAD mice were orally treated with 50 mg/kg of triflupromazine once every two days for 3 weeks. The control received the same amount of vehicle (1% (w/v) DMSO in PBS).
Mice were anesthetized using 2%(w/v) avertin (20 mg/g, i.p.). The mice were perfused with 0.9%(w/v) NaCl and brains thereof were excised. […] The lysate concentration was measured using the BCA protein assay kit (thermoFisher, cat #232250) according to the manufacturer's instructions. The absorbance was read at 560 nm.
To stain frozen brain with thioflavin S (ThS), the brain was cut to 35 um thickness to create tissue sections using cryostat (Leica CM1800) and then Aβ plaques were stained. […] Images were obtained using a Leica DM2500 fluorescence microscope.

[4] = test system: Total Tau (T-Tau) and phosphorylated Tau (P-Tau); experiment: Western blot of total and phosphorylated Tau in brain tissue after oral triflupromazine; assay type: in vivo, mice
Description: as §1, with “(5×FAD; Alzheimer's” for “(APP/PS1 TG; Alzheimer'”, “B6SJL-Tg (APPSwFILon, PSEN1*M146L*L286V)6799Vas/Mmjax))” for “B6C3-Tg(APPswe, PSEN1dE)85Dbo/Mmjax)”, “wild-type” for “wild type”, “obtained” for “derived”, “5× FAD” for “APP/PS1 TG”, “Four to six mice were” for “Each mouse was”
as §6
Mice were anesthetized using 2%(w/v) avertin (20 mg/g, i.p.). The mice were perfused with 0.9%(w/v) NaCl and brains thereof were excised. The hemibrains were fixed overnight at 4° C. in 4° /0(w/v) paraformaldehyde (pH 7.4). For cryopreservation, brains were soaked in 30%(w/v) sucrose for 48 hours. The other hemibrains were dissected into cortical and hippocampal regions and homogenized on ice for 30 minutes in lysis buffer (10 mM Tris-HCl, 5 mM EDTA in 320 mM sucrose, pH 7.4) containing 1× protease inhibitor cocktail. The sample was centrifuged at 13500 rpm for 30 minutes at 4° C. The lysate concentration was measured using the BCA protein assay kit (thermoFisher, cat #232250) according to the manufacturer's instructions. The absorbance was read at 560 nm.
Changes in Tau, a major cause of Alzheimer's dementia and Parkinson's disease, together with Aβ plaques, were confirmed by Western blot analysis. Samples of the prepared tissues were separated by SDS-PAGE and transferred to PVDF membrane. The membrane was treated overnight at 4° C. using the primary antibody. As the primary antibody, antibodies capable of detecting Total Tau (T-Tau) and phosphorylated Tau (P-Tau) were used, and detection was performed using a secondary antibody conjugated with horseradical peroxidase (HRP). The blot development was performed with a Clarity Western ECL substrate (Bio-Rad) according to the manufacturer's instructions.
On the other hand, in wild type mice (Wt), a decrease in total Tau (T-Tau) and phosphorylated Tau (P-Tau) was not observed.

[5] = 5× FAD (Tg) mice, cortex and hippocampus tissue, oral 50 mg/kg once every two days for 3 weeks, vs Tg veh

CO[C@H]1/C=C/O[C@@]2(C)Oc3c(C)c(O)c4c(O)c(c(/C=N/N5CCN(C6CCCC6)CC5)c(O)c4c3C2=O)NC(=O)/C(C)=C\C=C\[C@H](C)[C@H](O)[C@@H](C)[C@@H](O)[C@@H](C)[C@H](OC(C)=O)[C@@H]1C [rifapentine, 3-[[(4-cyclopentyl-1-piperazinyl)imino]methyl]-rifamycin]
spontaneous alteration (%) (APP/PS1 TG mice): increased closer to the positive control group (WT-Veh) | Aβ aggregation degree compared to the control (Aβ1-42 [1]): ≤ 40% | amyloid aggregation inhibition effect compared to the control (Aβ1-42 [1]): ≥ 60% | Aggregation (%) (Aβ1-42 [1]): 13.35% | amyloid disaggregation effect (Aβ1-42 [2]; 50 μM compound): ≥ 90% | degree of Aβ aggregation compared to the control (Aβ1-42 [2]; 50 μM compound): ≤ 10% | amyloid disaggregation effect (Aβ1-42 [2]; 500 μM compound): ≥ 99% | degree of Aβ aggregation compared to the control (Aβ1-42 [2]; 500 μM compound): ≤ 1% | Aβ disaggregation (bands of aggregated Aβ fibrils and dimers) (Aβ42): concentration-dependent Aβ disaggregation activity | Aβ disaggregation effect compared to the control (Aβ1-42 [3]): ≥ 90% | degree of Aβ aggregation compared to the control (Aβ1-42 [3]): ≤ 10%

CN(C)CCCN1c2ccccc2Sc2ccc(C(F)(F)F)cc21 [triflupromazine, dimethyl ({3-[2-(trifluoromethyl)-10H-phenothiazin-10-yl]propyl})amine]
Aβ aggregation degree compared to the control (Aβ1-42 [1]): ≤ 70% | amyloid aggregation inhibition effect compared to the control (Aβ1-42 [1]): ≥ 30% | Aggregation (%) (Aβ1-42 [1]): 49.84% | number of plaques (5× FAD mice): reduced | total areas of plaques (5× FAD mice): reduced | amyloid disaggregation effect (Aβ1-42 [2]; 50 μM compound): ≥ 35% | degree of Aβ aggregation compared to the control (Aβ1-42 [2]; 50 μM compound): ≤ 65% | amyloid disaggregation effect (Aβ1-42 [2]; 500 μM compound): ≥ 75% | degree of Aβ aggregation compared to the control (Aβ1-42 [2]; 500 μM compound): ≤ 25% | Aβ disaggregation (bands of aggregated Aβ fibrils and dimers) (Aβ42): concentration-dependent Aβ disaggregation activity | P-Tau (phosphorylated Tau) [4, 5]: decreased | T-Tau (Total Tau) [4, 5]: decreased | decrease in phosphorylated Tau (P-Tau) ([4]; wild type mice (Wt)): not observed | decrease in total Tau (T-Tau) ([4]; wild type mice (Wt)): not observed

From patent US20240139178A1, “METHOD FOR MANUFACTURING COMPOSITION FOR COMPOSITION FOR INCREASING COGNITIVE FUNCTION” (priority 2018, published 2024)
